Experimental data as given in ChEMBL document CHEMBL1201862, “PubChem BioAssay data set” (2004).
Calls of active or inactive are those of the source.

How the values were obtained:
[1] = molecular target: Voltage-dependent T-type calcium channel subunit alpha-1H (Homo sapiens, UniProt O95180); format: functional;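 note: channel activity triggered by adding a high calcium stimulation buffer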
Cytochrome P450 1A2 = molecular target: T1, Cytochrome P450 1A2 (Homo sapiens, UniProt P05177);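 note: PubChem cytochrome P450 panel assay, CYP1A2 panel member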
T1 sequence (P05177 whole entry): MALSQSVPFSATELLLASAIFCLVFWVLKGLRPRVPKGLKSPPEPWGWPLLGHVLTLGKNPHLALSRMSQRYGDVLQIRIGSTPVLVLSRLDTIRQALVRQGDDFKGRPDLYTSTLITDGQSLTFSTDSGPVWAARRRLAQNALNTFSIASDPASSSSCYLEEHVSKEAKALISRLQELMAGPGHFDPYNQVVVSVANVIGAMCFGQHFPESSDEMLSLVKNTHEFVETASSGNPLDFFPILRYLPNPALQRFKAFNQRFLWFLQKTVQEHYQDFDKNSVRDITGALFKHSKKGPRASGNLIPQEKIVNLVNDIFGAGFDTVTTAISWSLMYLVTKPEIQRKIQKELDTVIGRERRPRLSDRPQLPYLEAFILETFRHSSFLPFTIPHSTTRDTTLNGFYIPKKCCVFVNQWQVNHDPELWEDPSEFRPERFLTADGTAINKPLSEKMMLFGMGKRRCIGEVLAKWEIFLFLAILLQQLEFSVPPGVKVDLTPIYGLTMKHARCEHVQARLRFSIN

Genome polyprotein = Genome polyprotein (dengue virus type 2, UniProt P29990); test: Dengue-2 NS5 methyltransferase inhibitors, primary screen, biochemical, confirmation dose response (AID 588689); format: functional
Cytochrome P450 3A4 = Cytochrome P450 3A4 (Homo sapiens, UniProt P08684);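 note: CYP3A4 tested as one member of a cytochrome P450 panel screen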
[2] = growth suppression of beta-catenin-knockout colon cells, dose response, cell-based, HCT116, human colon tumor (AID 1045); format: functional;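 note: HCT116 colon tumor cells with beta catenin knocked out; cells exposed to compound for 60 hours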
[3] = molecular target: Peroxisome proliferator-activated receptor gamma/Nuclear receptor coactivator 1 (Homo sapiens, UniProt P37231); format: functional;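 note: agonist potency as compounds enhance coactivator SRC-1 recruitment to PPARgamma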
[4] = molecular target: Peroxisome proliferator-activated receptor gamma/Nuclear receptor coactivator 3 (Homo sapiens, UniProt P37231); format: functional;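 note: agonist potency for raising coactivator recruitment to the receptor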
[5] = molecular target: Peroxisome proliferator-activated receptor gamma/Nuclear receptor coactivator 2 (Homo sapiens, UniProt P37231); format: functional;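 note: agonist potency for raising coactivator recruitment to the receptor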
[6] = growth suppression of PTEN-null colon cells, dose response, cell-based, HCT116 PTEN knockout (AID 1047); format: functional;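 note: HCT116 colon tumor cells with PTEN knocked out; cells exposed to compound for 60 hours before readout; potency for loss of cell viability measured by luminescence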
[7] = Luminescence Cell-Based Dose Retest to Confirm Inhibitors of Cancer Stem Cells. [Related pubchem assays (depositor defined):AID2717, AID2721]; format: functional; conditions: Homo sapiens
H9c2 = test: cells; format: functional, cell-based; conditions: Rattus norvegicus, H9c2, Myocardium;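 note: confirmatory concentration-response retest of ultra-high-throughput screening hits for modulation of myocardial damage; cell death induced by hydrogen peroxide oxidative stress; compound pretreatment for 60 min then peroxide exposure for 2 h; potency is for protecting the cells against peroxide damage rather than for killing them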
HEK293 [8] = test: cells; format: functional, cell-based; conditions: Homo sapiens
HEK293 [9] = test: NOD2 signaling inhibitors in MDP-stimulated cells, cell-based, uHTS, luminescence (AID 2001); format: functional; conditions: Homo sapiens
HEK293 [10] = test: NOD1 signaling inhibitors, primary screen, cell-based, luminescence, uHTS (AID 1578); format: functional; conditions: Homo sapiens
[11] = molecular target: T2, Corticotropin-releasing factor receptor 2/Corticotropin-releasing factor-binding protein (Homo sapiens, UniProt P24387+Q13324); test: activators of CRF receptor 2 with binding protein – uHTS hits, confirmation (AID 602473); format: functional; conditions: read-out: EC50_Mean
T2 sequence (Q13324 whole entry): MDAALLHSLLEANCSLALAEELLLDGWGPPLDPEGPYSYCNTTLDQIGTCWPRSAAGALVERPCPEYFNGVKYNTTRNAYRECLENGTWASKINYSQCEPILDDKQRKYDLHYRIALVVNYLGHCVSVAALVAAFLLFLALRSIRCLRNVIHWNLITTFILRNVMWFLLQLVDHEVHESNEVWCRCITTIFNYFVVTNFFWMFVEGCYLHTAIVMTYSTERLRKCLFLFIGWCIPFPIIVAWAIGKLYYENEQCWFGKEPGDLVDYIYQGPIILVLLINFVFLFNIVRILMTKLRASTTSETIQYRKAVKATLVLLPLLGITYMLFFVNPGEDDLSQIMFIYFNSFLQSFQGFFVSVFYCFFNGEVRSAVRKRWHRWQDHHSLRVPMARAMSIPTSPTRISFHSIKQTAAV
T2 sequence (P24387 whole entry): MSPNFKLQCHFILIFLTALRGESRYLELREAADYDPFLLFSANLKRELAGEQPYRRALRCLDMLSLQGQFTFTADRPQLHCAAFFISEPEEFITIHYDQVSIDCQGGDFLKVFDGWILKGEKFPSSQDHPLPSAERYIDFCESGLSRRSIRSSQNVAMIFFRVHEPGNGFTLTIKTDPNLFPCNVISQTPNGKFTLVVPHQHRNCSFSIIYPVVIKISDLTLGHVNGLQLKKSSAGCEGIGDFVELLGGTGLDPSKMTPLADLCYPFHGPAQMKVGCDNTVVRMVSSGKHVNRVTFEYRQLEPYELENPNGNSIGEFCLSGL

[12] = molecular target: T2, Corticotropin-releasing factor receptor 2/Corticotropin-releasing factor-binding protein; test: Dose Response confirmation of uHTS hits for small molecule antagonists of the CRF-binding protein and CRF-R2 receptor complex.; format: functional; conditions: read-out: IC50_Mean
[13] = inhibitors of firefly luciferase expression or activity, dose response, H4 neuroglioma cells, luminescence (AID 1990); format: functional, cell-based
[14] = Luminescence Cell-Based Dose Response HTS to Identify Inhibitors of 5'UTR Stem-Loop Driven Prion Protein mRNA Translation in H4 Neuroglioblastoma Cells. [Related pubchem assays: 1827 (Project Summary), 1813 (Primary HTS)]; format: functional
cells = format: functional
[15] = inhibitors of SNCA 5'UTR-driven reporter translation, confirmation, H4 neuroglioma cells, luminescence (AID 1988); format: functional, cell-based
[16] = THP-1 cell cytotoxicity, dose response, cytotoxicity control for non-replicating M. tuberculosis project (AID 489025); format: functional
[17] = cytotoxicity toward NIH3T3 fibroblasts, dose response, counter-screen, cell-based, ATP luminescence, mouse fibroblasts (AID 2010); format: functional;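 note: cells exposed to compound for about 90 hours before reading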
[18] = inhibitors of intracellular T. cruzi replication, confirmation, NIH3T3 host cells, beta-gal luminescence (AID 2044); format: functional, cell-based;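 note: intracellular parasites grown in NIH/3T3 mouse fibroblasts as host cells; luminescent beta-galactosidase reporter signal from transgenic T. cruzi replicating inside host cells; inhibitors lower the luminescence signal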
[19] = molecular target: T3, Short transient receptor potential channel 4 (Mus musculus, UniProt Q9QUQ5); test: mouse TRPC4 channel activators, dose response, cell-based, HEK293 TRPC4/mu-opioid, Fluo-4 calcium (AID 434937); format: functional
T3 sequence (Q9QUQ5 whole entry): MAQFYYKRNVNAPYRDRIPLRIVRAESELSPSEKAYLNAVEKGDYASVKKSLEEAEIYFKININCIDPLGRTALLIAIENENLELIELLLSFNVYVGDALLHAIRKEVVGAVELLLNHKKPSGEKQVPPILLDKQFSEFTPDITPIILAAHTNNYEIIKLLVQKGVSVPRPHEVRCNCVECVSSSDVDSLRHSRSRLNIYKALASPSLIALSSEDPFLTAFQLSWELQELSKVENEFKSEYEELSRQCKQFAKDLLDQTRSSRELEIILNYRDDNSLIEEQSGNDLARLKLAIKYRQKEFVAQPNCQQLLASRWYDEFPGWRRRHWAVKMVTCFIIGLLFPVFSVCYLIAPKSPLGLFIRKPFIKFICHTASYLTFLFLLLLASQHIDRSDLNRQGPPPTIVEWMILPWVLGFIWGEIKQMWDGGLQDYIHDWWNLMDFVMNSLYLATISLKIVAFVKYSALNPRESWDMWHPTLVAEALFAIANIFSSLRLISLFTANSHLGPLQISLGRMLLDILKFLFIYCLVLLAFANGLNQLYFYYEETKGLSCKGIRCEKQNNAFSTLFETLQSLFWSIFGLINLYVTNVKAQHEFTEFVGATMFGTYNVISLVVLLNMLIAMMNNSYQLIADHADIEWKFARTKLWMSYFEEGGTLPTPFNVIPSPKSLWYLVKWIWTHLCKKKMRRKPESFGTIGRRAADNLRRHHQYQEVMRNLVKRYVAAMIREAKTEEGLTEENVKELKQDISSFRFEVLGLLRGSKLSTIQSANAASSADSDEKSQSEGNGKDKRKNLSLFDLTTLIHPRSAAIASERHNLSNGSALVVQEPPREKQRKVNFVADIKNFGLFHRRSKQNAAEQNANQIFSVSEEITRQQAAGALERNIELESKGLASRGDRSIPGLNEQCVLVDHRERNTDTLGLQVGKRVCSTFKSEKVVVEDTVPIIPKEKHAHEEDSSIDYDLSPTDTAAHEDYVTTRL

Genome polyprotein, sequence (P29990 2492-3391 limits assumed): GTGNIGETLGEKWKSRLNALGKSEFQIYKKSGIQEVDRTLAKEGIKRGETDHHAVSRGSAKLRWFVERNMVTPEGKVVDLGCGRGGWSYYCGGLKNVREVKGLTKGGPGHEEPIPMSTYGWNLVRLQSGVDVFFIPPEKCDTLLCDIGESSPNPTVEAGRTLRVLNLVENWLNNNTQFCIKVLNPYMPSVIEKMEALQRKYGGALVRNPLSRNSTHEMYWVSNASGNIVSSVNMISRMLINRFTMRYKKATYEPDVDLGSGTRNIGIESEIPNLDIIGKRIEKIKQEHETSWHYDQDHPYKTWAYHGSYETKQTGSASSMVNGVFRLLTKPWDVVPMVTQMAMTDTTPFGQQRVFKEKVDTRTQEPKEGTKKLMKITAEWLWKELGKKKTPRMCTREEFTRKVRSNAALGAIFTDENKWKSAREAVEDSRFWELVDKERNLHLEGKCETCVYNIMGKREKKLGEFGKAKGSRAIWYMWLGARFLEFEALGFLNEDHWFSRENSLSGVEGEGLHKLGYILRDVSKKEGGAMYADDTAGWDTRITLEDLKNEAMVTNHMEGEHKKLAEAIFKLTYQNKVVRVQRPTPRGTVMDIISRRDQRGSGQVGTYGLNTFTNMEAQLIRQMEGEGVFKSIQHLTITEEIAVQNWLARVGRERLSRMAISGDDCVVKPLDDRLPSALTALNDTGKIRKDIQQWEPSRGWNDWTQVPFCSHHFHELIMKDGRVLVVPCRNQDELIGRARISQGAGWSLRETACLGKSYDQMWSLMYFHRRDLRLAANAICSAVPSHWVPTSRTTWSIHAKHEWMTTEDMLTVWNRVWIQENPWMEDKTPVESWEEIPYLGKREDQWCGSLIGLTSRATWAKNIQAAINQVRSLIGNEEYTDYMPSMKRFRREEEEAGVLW
Voltage-dependent T-type calcium channel subunit alpha-1H, sequence (O95180 whole entry): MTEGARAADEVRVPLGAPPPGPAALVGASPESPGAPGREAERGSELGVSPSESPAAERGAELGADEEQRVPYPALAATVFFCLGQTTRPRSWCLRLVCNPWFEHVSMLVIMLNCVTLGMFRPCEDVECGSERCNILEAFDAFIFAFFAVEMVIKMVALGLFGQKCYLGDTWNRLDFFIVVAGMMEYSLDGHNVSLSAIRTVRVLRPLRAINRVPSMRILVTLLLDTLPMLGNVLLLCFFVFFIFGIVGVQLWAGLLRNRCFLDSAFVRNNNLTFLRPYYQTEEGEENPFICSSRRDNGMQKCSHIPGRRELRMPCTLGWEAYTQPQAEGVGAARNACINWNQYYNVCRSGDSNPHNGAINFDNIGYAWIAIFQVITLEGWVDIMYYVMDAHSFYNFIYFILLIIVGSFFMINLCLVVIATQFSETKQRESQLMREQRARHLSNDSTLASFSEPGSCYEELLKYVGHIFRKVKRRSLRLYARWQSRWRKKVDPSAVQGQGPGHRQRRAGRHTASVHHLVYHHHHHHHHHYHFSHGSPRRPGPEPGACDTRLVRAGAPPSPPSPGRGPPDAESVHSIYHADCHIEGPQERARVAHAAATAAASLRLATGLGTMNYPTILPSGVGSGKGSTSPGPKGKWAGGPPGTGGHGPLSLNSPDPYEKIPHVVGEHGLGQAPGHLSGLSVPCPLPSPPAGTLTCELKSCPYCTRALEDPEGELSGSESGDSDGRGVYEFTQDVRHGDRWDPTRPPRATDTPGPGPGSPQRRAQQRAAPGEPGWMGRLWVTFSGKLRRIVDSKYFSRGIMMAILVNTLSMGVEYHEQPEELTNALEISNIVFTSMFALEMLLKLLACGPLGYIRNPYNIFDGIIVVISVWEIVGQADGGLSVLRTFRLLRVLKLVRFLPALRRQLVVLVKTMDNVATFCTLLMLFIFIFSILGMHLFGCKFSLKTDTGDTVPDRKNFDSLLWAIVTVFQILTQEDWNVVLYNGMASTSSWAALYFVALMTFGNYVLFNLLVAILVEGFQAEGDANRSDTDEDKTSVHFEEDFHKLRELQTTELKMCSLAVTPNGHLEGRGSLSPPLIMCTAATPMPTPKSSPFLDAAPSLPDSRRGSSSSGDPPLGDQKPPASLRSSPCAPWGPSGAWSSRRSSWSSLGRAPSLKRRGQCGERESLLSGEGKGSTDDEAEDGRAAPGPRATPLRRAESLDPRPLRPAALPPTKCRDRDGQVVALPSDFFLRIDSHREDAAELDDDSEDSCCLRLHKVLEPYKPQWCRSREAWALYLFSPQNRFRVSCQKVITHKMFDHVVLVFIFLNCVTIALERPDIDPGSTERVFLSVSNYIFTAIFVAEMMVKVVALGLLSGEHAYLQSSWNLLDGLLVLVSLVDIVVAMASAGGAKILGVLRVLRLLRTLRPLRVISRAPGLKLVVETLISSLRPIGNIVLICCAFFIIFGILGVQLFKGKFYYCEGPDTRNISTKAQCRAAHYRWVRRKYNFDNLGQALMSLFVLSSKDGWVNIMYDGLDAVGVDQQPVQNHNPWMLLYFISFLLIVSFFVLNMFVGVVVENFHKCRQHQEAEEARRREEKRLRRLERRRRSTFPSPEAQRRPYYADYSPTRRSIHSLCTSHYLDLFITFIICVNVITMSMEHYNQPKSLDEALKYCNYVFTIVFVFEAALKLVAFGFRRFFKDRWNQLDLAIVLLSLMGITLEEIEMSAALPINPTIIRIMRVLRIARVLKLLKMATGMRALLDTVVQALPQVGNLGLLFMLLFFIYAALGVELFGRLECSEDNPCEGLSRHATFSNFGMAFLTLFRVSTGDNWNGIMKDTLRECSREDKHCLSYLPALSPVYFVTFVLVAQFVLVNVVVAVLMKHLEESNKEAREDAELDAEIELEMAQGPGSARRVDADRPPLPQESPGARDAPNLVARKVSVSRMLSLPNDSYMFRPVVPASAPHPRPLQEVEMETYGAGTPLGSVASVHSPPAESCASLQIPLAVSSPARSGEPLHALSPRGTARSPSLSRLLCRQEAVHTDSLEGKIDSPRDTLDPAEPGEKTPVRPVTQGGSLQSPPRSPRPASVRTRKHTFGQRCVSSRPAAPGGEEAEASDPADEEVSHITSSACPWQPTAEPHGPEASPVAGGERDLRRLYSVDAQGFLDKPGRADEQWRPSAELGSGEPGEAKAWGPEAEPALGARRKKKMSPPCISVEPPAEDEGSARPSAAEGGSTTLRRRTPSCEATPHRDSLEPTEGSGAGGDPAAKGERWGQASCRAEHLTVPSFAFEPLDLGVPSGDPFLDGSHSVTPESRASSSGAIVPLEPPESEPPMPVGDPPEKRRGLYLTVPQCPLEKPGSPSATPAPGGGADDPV
Cytochrome P450 3A4, sequence (P08684 whole entry): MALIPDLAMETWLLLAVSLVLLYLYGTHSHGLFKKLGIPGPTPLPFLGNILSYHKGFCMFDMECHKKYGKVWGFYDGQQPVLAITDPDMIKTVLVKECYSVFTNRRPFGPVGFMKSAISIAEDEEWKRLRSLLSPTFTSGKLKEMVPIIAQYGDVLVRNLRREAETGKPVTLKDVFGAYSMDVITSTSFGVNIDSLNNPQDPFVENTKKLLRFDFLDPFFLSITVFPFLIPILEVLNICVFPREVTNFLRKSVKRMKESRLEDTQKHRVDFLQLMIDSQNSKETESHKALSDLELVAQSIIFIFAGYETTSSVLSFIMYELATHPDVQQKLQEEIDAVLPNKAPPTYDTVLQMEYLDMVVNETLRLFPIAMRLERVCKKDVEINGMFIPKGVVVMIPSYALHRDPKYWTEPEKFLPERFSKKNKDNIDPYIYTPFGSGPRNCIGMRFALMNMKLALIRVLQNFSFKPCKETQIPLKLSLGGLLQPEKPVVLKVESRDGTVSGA

In the case of Cc1ccc(-c2ccc(/C=N/N3C(=O)C4C5C=CC(C6CC56)C4C3=O)o2)c([N+](=O)[O-])c1 (configuration not stated), the EC50 [1] is reported as 7.22 µM (active).
In the case of O=C(Nc1ccn(Cc2ccccc2F)n1)c1ccc(COc2cc(Cl)ccc2Cl)o1, the AC50 (Cytochrome P450 1A2) is reported as 3.55 µM (inconclusive) and the EC50 [1] is reported as 7.11 µM (active).
In the case of COc1ccccc1NC(=O)c1nnn(Cc2ccccc2)c1NC(=O)C(F)(F)F, the EC50 [1] is reported as 3.86 µM (active).
For COc1ccccc1N(O)C1CC(=O)N(c2ccc(Br)cc2)C1=O (configuration not stated), the IC50 (Genome polyprotein) was 34.7 µM (active).
In the case of CN1C(=O)C(=Cc2ccccc2Oc2ccc(Cl)c(F)c2)C(=O)N(C)C1=O, the AC50 (Cytochrome P450 3A4) is reported as 14.1 µM (inconclusive) and the IC50 (Genome polyprotein) is reported as 51.9 µM (active).
In the case of CCN1CCCC1CNC(=O)c1cc2c(-c3ccc(Cl)cc3)nn(C)c2s1 (configuration not stated), the EC50 [2] is reported as 5.02 µM (active), the EC50 [3] is reported as > 79.4 µM (not active) and the EC50 [4] is reported as > 79.4 µM (not active). For the same compound, the EC50 [5] was > 79.4 µM (not active) and the EC50 [6] was 5.98 µM (active).
In the case of O=C(CSc1nc2ccccc2[nH]1)Nc1ccc2c(c1)OCCO2, the EC50 [1] is reported as 13.3 µM (active).
For C/C(CC(c1ccccc1)c1c(O)oc2ccccc2c1=O)=N\Nc1ccc([N+](=O)[O-])cc1[N+](=O)[O-] (configuration not stated), the IC50 (Genome polyprotein) was 94.4 µM (active).
For Cc1snc(S(=O)(=O)/C(C#N)=N/Nc2ccc(C(F)(F)F)cc2)c1C#N, the AC50 [7] was 7.49 µM (active) and the EC50 [1] was 6.48 µM (active).
In the case of CCN(CC)CCn1c(NC(=O)c2ccc(Cl)cc2)nc2ccccc21, the EC50 [3] is reported as > 79.4 µM (not active), the IC50 (H9c2) is reported as > 79 µM (inactive) and the EC50 [4] is reported as > 79.4 µM (not active). For the same compound, the EC50 [5] was > 79.4 µM (not active).
In the case of O=C(COc1ccc(Cl)cc1)NCCSCc1cccc(Cl)c1, the EC50 [1] is reported as 3.76 µM (active).
In the case of COc1cc(/C=C2/CCc3ccccc3C2=O)cc(OC)c1OC, the IC50 (HEK293 [8]) is reported as > 20 µM (inactive), the IC50 (HEK293 [9]) is reported as 9.24 µM (active) and the EC50 (HEK293 [10]) is reported as > 20 µM (inactive).
For Cc1ccc(NS(=O)(=O)c2cccs2)cc1S(=O)(=O)N1CCCCCC1, the EC50 [3] was > 79.4 µM (not active), the EC50 [4] was > 79.4 µM (not active) and the EC50 [5] was > 79.4 µM (not active). For the same compound, the EC50 [11] was > 53 µM (inactive) and the IC50 [12] was > 47.1 µM (inactive).
For Cc1cc(OCCCCn2ccnc2)cc(C)c1Cl, the EC50 [13] was > 120 µM (not active), the EC50 [14] was > 120 µM (not active) and the IC50 (cells) was 15.8 µM (active). The EC50 [15] was 16 µM (active), the CC50 [16] was 33.2 µM (active) and the EC50 [17] was > 60 µM (not active). The EC50 [18] was 0.145 µM (active) and the EC50 [19] was 5.31 µM (active).
